These results are taken from US20100305173A1, “HYDROXYETHYLAMINO SULFONAMIDE DERIVATIVES” (CoNCERT Pharmaceuticals, Inc., priority 2009, published 2010).

A short description of the data set: Metabolic stability of test compounds in human liver microsomes. Type of data set: in vitro ADME. The note with it: for half-life: human, liver microsomes, pH 7.4, half-life in human liver microsomes. On the procedure: Determination of Metabolic Stability of Test Compounds in
Human Liver Microsomes. Human liver microsomes (20 mg/mL) were obtained from Xenotech, LLC (Lenexa, Kans.). β-nicotinamide adenine dinucleotide phosphate, reduced form (NADPH), magnesium chloride (MgCl2), and dimethyl sulfoxide (DMSO) were purchased from Sigma-Aldrich.
7.5 mM stock solutions of test compounds were prepared in DMSO. […] The diluted microsomes (375 μL) were added to wells of a 96-well deep-well polypropylene plate in triplicate. […] Reactions were initiated by addition of 125 μL of pre-warmed NADPH solution. The final reaction volume was 0.5 mL and contained 0.5 mg/mL human liver microsomes, 0.25-1.0 μM test compound, and 2 mM NADPH in 0.1 M potassium phosphate buffer, pH 7.4, and 3 mM MgCl2. The reaction mixtures were incubated at 37° C., and 50 μL aliquots were removed at 0, 5, 10, 20, and 30 minutes and added to shallow-well 96-well plates which contained 50 μL of ice-cold ACN with internal standard to stop the reactions. The plates were stored at 4° C. for 20 minutes after which 100 μL of water was added to the wells of the plate before centrifugation to pellet precipitated proteins. Supernatants were transferred to another 96-well plate and analyzed for amounts of parent compound remaining by LC-MS/MS using an Applied Bio-systems API 4000 mass spectrometer. 7-ethoxycoumarin (1 μM) was used as the positive control substrate.
Data analysis: The in vitro half-lives (tii2s) for test compounds were calculated from the slopes of the linear regression of % parent remaining (ln) vs incubation time relationship using the following formula: […]
Data analysis was performed using Microsoft Excel Software.
FIG. 1, FIG. 2, FIG. 3, Table 2, Table 3 and Table 4 show the results of this experiment.

Where [1] appears, read: Table 2, Exp A, read-out: T1/2 (min) Exp A.
Where [2] appears, read: Table 2, Exp B, read-out: T1/2 (min) Exp B.
Where [3] appears, read: Table 2, calculated average of Exp A and B, read-out: T1/2 (min) Average.
The mark [4] stands for this setting: Table 3, Exp C, read-out: T1/2 (min) Exp C.
[5] abbreviates: Table 3, Exp D, read-out: T1/2 (min) Exp D.
The mark [6] stands for this setting: Table 3, calculated average of Exp C and D, read-out: T1/2 (min) Average.
The mark [7] stands for this setting: Table 4, Expt I, read-out: T1/2 (min) Expt I.
The mark [8] stands for this setting: Table 4, Expt J, read-out: T1/2 (min) Expt J.
[9] abbreviates: Table 4, calculated average of Expt E-J, read-out: T1/2 (min) Average ± SD.
[10] abbreviates: Table 4, Expt G, read-out: T1/2 (min) Expt G.
Where [11] appears, read: Table 4, Expt H, read-out: T1/2 (min) Expt H.

Read-outs that look alike come from different tables or passages of the source.

On to `[2H]C([2H])([2H])C([2H])(C([2H])([2H])[2H])C([2H])([2H])N(C[C@@H](O)[C@H](Cc1ccccc1)NC(=O)O[C@]1([2H])[C@@H]2CCO[C@@H]2OC1([2H])[2H])S(=O)(=O)c1ccc2occ(CNC(=O)OCC)c2c1` [Compound 235, ((5-(N-((2R,3S)-3-(((((3R,3aS,6aR)-hexahydrofuro[2,3-b]furan-3-yl)oxy)carbonyl)amino)-2-hydroxy-4-phenylbutyl)-isobutylsulfamoyl)benzofuran-3-yl)methyl)carbamic acid ethyl ester-d12], for which the half-life by setting is: under setting [1], 2.4 min; under setting [2], 1.5 min; under setting [3], 2 min.

As to `[2H]C([2H])([2H])C([2H])(C([2H])([2H])[2H])C([2H])([2H])N(C[C@@H](O)[C@H](Cc1ccccc1)NC(=O)O[C@]1([2H])[C@H]2[C@H](OC([2H])([2H])C2([2H])[2H])OC1([2H])[2H])S(=O)(=O)c1ccc2ncsc2c1` [Compound 237, (3R,3aS,6aR)-hexahydrofuro[2,3-b]furan-3-yl-((2S,3R)-3-hydroxy-4-(N-isobutylbenzo[d]thiazole-6-sulfonamido)-1-phenylbutan-2-yl)carbamate-d16], the half-life is 8.3 min under setting [4], 7.9 min under setting [5] and 8.1 min under setting [6].

Turning to `CC(C)CN(C[C@@H](O)[C@H](Cc1ccccc1)NC(=O)O[C@H]1CO[C@H]2OCC[C@H]21)S(=O)(=O)c1ccc2ncsc2c1` [Compound 302, reference compound], the half-life reads like this: under setting [4], 8.2 min; under setting [5], 8.7 min; under setting [6], 8.5 min; under setting [7], 5.6 min; under setting [8], 6.4 min; under setting [9], 6 min.

With `CCOC(=O)NCc1coc2ccc(S(=O)(=O)N(CC(C)C)C[C@@H](O)[C@H](Cc3ccccc3)NC(=O)O[C@H]3CO[C@H]4OCC[C@H]43)cc12` [Compound 301, reference compound], the half-life under setting [1] came out at 1.9 min, the half-life under setting [2] was 1.5 min and the half-life under setting [3] is 1.7 min.

For `Cc1nc(COc2ccc(C[C@H](NC(=O)O[C@H]3CO[C@H]4OCC[C@H]43)[C@H](O)CN(CC(C)C)S(=O)(=O)c3ccc4c(c3)OCO4)cc2)cs1` [Brecanavir, N-[3-[N-(1,3-Benzodioxol-5-ylsulfonyl)-N-isobutylamino]-2(R)-hydroxy-1-(S)-[4-(2-methylthiazol-4-ylmethoxy)benzyl]propyl]carbamic acid (3R,3aS,6aR)-perhydrofuro[2,3-b]furan-3-yl ester, reference compound], the half-life under setting [7] was determined as 2 min, the half-life under setting [8] turned out to be 2 min and the half-life under setting [9] is 2 min.

Regarding `[2H]C([2H])([2H])C([2H])(C([2H])([2H])[2H])C([2H])([2H])N(C[C@@H](O)[C@H](Cc1ccccc1)NC(=O)O[C@]1([2H])[C@@H]2CCO[C@@H]2OC1([2H])[2H])S(=O)(=O)c1ccc(NC(=O)C2CC2)cc1` [Compound 233, (3R,3aS,6aR)-hexahydrofuro[2,3-b]furan-3-yl-((2S,3R)-4-(4-(cyclopropanecarbox-amido)-N-isobutylphenylsulfonamido)-3-hydroxy-1-phenylbutan-2-yl)carbamate-d12], the half-life is 4.7 min under setting [1], 2.4 min under setting [2] and 3.5 min under setting [3].

With `[2H]C([2H])(N(C[C@@H](O)[C@H](Cc1ccccc1)NC(=O)O[C@]1([2H])[C@@H]2CCO[C@@H]2OC1([2H])[2H])S(=O)(=O)c1ccc(NC(C)=O)cc1)C1([2H])C([2H])([2H])C([2H])([2H])C([2H])([2H])C1([2H])[2H]` [Compound 236, (3R,3aS,6aR)-hexahydrofuro[2,3-b]furan-3-yl-((2S,3R)-4-(4-acetamido-N-(cyclopen-tylmethyl)phenylsulfonamido)-3-hydroxy-1-phenylbutan-2-yl)carbamate-d14], the half-life was 7.1 min under setting [1], 3.6 min under setting [2] and 5.4 min under setting [3].

On to `[2H]C([2H])([2H])C([2H])(C([2H])([2H])[2H])C([2H])([2H])N(C[C@@H](O)[C@H](Cc1ccccc1)NC(=O)O[C@]1([2H])[C@@H]2CCO[C@@H]2OC1([2H])[2H])S(=O)(=O)c1ccc2ncsc2c1` [Compound 229, (3R,3aS,6aR)-hexahydrofuro[2,3-b]furan-3-yl-((2S,3R)-3-hydroxy-4-(N-isobutylbenzo[d]thiazole-6-sulfonamido)-1-phenylbutan-2-yl)carbamate-d12], for which the half-life runs as follows: under setting [4], 8.7 min; under setting [5], 8.6 min; under setting [6], 8.6 min; under setting [10], 6.4 min; under setting [11], 6.7 min; under setting [7], 6 min. The half-life was 5.8 min under setting [8] and 6.2 ± 0.4 min under setting [9].

`[2H]C([2H])([2H])C([2H])(C([2H])([2H])[2H])C([2H])([2H])N(C[C@@H](O)[C@H](Cc1ccccc1)NC(=O)O[C@]1([2H])[C@@H]2CCO[C@@H]2OC1([2H])[2H])S(=O)(=O)c1ccc(NC(C)=O)cc1` [Compound 227, (3R,3aS,6aR)-hexahydrofuro[2,3-b]furan-3-yl-((2S,3R)-4-(4-acetamido-N-isobutylphenylsulfonamido)-3-hydroxy-1-phenylbutan-2-yl) carbamate-d12]: the half-life was 9 min under setting [1]; 4.3 min under setting [2]; 6.6 min under setting [3]; 5.7 min under setting [10]; 5.3 min under setting [11]; 7.2 min under setting [7]. Besides, the half-life reads like this: under setting [8], 7.1 min; under setting [9], 6.3 ± 1 min.

Consider `[2H]C([2H])([2H])C([2H])(C([2H])([2H])[2H])C([2H])([2H])N(C[C@@H](O)[C@H](Cc1ccccc1)NC(=O)O[C@]1([2H])[C@@H]2CCO[C@@H]2OC1([2H])[2H])S(=O)(=O)c1ccc2occc2c1` [Compound 106, (3R,3aS,6aR)-hexahydrofuro[2,3-b]furan-3-yl-((2S,3R)-3-hydroxy-4-(N-isobutylbenzofuran-5-sulfonamido)-1-phenylbutan-2-yl)carbamate-d12], for which the “increase in stability over darunavir and brecanavir” value (human liver microsomes, versus darunavir and brecanavir, in words) is given as “very significant increase in stability”. Besides, the half-life is 31.2 min (Table 4, Expt E, read-out: T1/2 (min) Expt E); 21.2 min (Table 4, Expt F, read-out: T1/2 (min) Expt F); 18.1 min under setting [11]; 21.5 min under setting [7]; 46.7 min under setting [8]; 23 ± 5.7 min under setting [9].

As to `CC(C)CN(C[C@@H](O)[C@H](Cc1ccccc1)NC(=O)O[C@H]1CO[C@H]2OCC[C@H]21)S(=O)(=O)c1ccc2occc2c1` [Compound 303, reference compound], the half-life was 21.1 min under setting [7], 19.9 min under setting [8] and 20.5 min under setting [9].

Take `[2H]C([2H])([2H])C([2H])(C([2H])([2H])[2H])C([2H])([2H])N(C[C@@H](O)[C@H](Cc1ccccc1)NC(=O)O[C@@]1([2H])C([2H])([2H])O[C@@]2([2H])OC([2H])([2H])C([2H])([2H])[C@]21[2H])S(=O)(=O)c1ccc2ncsc2c1` [Compound 230, (3R,3aS,6aR)-hexahydrofuro[2,3-b]furan-3-yl-((2S,3R)-3-hydroxy-4-(N-isobutylbenzo[d]thiazole-6-sulfonamido)-1-phenylbutan-2-yl)carbamate-d18]: the “increase in stability over darunavir” value (human liver microsomes, average of two runs, versus darunavir) turned out to be 36%. Besides, the “increase in stability over 302, its non-deuterated counterpart” value (human liver microsomes, versus 302, in words) is “an even greater increase in stability”. The half-life was 11.7 min under setting [4], 15.1 min under setting [5] and 13.4 min under setting [6].
